In patent publication EP0502020B1, “NOVEL BENZO [b] PHENANTHROLINE-1,7 DERIVATIVES, AND THEIR PREPARATION AND THERAPEUTICAL APPLICATIONS” (PIERRE FABRE MEDICAMENT, priority 1989, dated 1991):
pIC50: −log10 of the molar value.

The compounds below were run on leucémie murine L 1210 (assay: Cytotoxic activity on murine leukaemia L 1210 cells in suspension culture, cell count after 48 h). Settings: Mus musculus, L1210; concentration reducing growth by 50 % versus controls; 48 heures d'incubation; Coulter Counter; 37°C, 5 % CO₂.
Format: cell-based
Protocol: L'activité cytotoxique a été evaluée sur le modèle de la leucémie murine L 1210 cultivée en suspension en milieu iquide à 37°C sous une atmosphère de 5 % CO₂.
Les cellules en phase exponentielle de croissance sont incubées en présence de concentrations croissantes des produits. Après 48 heures d'incubation, les cellules sont comptées (Coulter Counter) et l'effet cytotoxique est évalué par la détermination par régression linéaire de la concentration du produit ayant réduit de 50 % la croissance par rapport aux témoins (IC₅₀).

**Q.** With `CNc1ccc2cc3ccc4ncccc4c3nc2c1CO` [Exemple 7, Hydroxyméthyl-11 méthylamino-10 benzo [b] phénanthroline-1,7] as the compound, how does the pIC50 read?
**A.** The pIC50 was 6.77.

**Q.** How did the pIC50 turn out when `CNc1ccc2cc3ccc4ncccc4c3nc2c1COC` [Exemple 6, Méthoxyméthyl-11 méthylamino-10 benzo [b] phénanthroline-1,7] was run?
**A.** The pIC50 was 5.96.

**Q.** With `CN1COCc2c1ccc1cc3ccc4ncccc4c3nc21` [Exemple 4, Dihydro-3,4 méthyl-4 1H-benzoxazino [3,1] [5,6-b] phénanthroline-1,7] as the compound, how does the pIC50 read?
**A.** Its pIC50 is 5.89.

**Q.** `COCc1c(O)ccc2cc3ccc4ncccc4c3nc12` [Exemple 2, Hydroxy-10 méthoxyméthyl-11 benzo [b] phénanthroline-1,7] was tested. Which pIC50 did it give?
**A.** The pIC50 was 5.19.
